How the values were obtained:
Assay type in all cases: functional
Spodoptera litura [1] = assay: Insecticidal activity against last-instar Spodoptera litura larvae assessed as wing pad separation injected at 0.4 ug/larvae (reference value: 100%)
Mamestra brassicae [2] = assay: Insecticidal activity against last-instar Mamestra brassicae larvae assessed as wing pad separation at 50 ug/larvae topical application (reference value: 0%)
Spodoptera litura [3] = assay: Insecticidal activity against last-instar Spodoptera litura larvae assessed as normal pupae injected at 0.4 ug/larvae (reference value: 100%)
Spodoptera litura [4] = assay: Insecticidal activity against last-instar Spodoptera litura larvae assessed as partial pupation injected at 2 ug/larvae (reference value: 100%)
Mamestra brassicae [5] = assay: Insecticidal activity against last-instar Mamestra brassicae larvae assessed as partial pupation injected at 10 ug/larvae (reference value: 10%)
Mamestra brassicae [6] = assay: Insecticidal activity against last-instar Mamestra brassicae larvae assessed as larval-pupal intermediate at 50 ug/larvae oral administration (reference value: 0%)

Structure (SMILES): OCC1=C[C@H](N[C@H]2C[C@H](CO)[C@@H](O)[C@H](O)[C@H]2O)[C@H](O)[C@@H](O)[C@@H]1O [VALIDOXYLAMINE A]
- Activity (Spodoptera litura [1]): 5%
- Activity (Mamestra brassicae [2]): 0%
- Activity (Spodoptera litura [3]): 85%
- Activity (Spodoptera litura [4]): 20%
- Activity (Mamestra brassicae [5]): 13%
- Activity (Mamestra brassicae [6]): 0%
